Earlier results as cited in patent publication US20210069213A1, “COMPOSITION AND METHOD OF TREATMENT FOR DRY A.M.D. (AGE RELATED MACULAR DEGENERATION)” (EYE CO PTY LTD, priority 2018, published 2021).

What was measured:
glucocorticoid receptor = biological target: T1, glucocorticoid receptor (Homo sapiens, UniProt P04150); conditions: cited from earlier work; for GR potency: Table 1, hydrocortisone (cortisol) = 1
T1 sequence (P04150 1-777): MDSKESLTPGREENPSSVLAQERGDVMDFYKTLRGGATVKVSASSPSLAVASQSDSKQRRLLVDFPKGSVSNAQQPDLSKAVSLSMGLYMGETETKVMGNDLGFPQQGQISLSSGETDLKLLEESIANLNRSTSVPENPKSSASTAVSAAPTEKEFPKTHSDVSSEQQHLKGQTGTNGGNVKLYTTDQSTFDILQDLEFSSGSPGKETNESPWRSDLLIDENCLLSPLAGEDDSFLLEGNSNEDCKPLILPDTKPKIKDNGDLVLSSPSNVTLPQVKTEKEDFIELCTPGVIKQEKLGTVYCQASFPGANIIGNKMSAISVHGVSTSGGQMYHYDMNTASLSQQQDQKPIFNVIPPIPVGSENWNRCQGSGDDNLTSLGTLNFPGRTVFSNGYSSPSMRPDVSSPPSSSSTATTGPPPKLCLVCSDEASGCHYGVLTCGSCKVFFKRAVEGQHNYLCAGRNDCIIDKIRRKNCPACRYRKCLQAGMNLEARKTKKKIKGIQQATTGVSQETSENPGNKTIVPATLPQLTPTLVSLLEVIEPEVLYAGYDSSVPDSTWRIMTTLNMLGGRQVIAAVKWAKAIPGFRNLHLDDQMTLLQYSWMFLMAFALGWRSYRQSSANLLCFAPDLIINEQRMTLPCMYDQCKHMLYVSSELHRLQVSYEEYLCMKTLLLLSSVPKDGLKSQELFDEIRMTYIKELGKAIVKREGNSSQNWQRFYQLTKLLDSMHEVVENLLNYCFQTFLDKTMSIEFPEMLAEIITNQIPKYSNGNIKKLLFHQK

[1] = biological target: T2, mineralocorticoid receptor (Homo sapiens, UniProt P08235); conditions: Table 1; hydrocortisone (cortisol) = 1; cited from earlier work
T2 sequence (P08235 1-984): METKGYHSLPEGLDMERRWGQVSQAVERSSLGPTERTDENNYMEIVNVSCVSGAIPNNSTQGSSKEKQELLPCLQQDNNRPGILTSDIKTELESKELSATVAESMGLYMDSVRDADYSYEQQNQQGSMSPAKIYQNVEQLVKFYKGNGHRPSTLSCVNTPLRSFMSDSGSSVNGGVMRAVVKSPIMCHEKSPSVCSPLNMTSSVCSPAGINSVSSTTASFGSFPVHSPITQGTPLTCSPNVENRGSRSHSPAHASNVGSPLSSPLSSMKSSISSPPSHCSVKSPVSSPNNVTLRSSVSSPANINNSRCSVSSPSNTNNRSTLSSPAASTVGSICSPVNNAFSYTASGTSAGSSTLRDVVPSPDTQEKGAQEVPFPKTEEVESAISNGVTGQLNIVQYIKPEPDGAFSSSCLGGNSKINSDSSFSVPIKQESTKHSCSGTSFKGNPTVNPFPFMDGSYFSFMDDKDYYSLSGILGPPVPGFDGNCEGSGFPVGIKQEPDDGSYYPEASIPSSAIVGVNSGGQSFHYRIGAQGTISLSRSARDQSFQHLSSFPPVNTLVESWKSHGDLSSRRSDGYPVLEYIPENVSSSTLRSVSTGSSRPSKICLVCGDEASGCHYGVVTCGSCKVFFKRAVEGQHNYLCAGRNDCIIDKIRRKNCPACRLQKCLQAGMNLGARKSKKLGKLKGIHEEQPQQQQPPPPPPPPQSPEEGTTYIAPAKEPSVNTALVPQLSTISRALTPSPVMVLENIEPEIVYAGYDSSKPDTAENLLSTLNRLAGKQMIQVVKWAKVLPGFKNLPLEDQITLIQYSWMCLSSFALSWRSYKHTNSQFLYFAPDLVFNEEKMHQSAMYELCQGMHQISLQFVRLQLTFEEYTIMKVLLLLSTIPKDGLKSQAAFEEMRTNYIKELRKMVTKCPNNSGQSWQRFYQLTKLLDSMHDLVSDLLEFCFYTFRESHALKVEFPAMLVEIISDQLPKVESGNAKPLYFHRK

[2] = system: New Zealand albino rabbits; conditions: cited from earlier work

## C[C@]12CCC(=O)C=C1CC[C@@H]1[C@@H]2[C@@H](O)C[C@]2(C=O)[C@@H](C(=O)CO)CC[C@@H]12 [Aldosterone]
Glucocorticoid receptor
  GR potency: 0.3
[1]
  MR potency: 200-1000

## C[C@H]1C[C@H]2[C@@H]3CCC4=CC(=O)C=C[C@]4(C)[C@@]3(Cl)[C@@H](O)C[C@]2(C)[C@@]1(O)C(=O)CO [Beclometasone]
Glucocorticoid receptor; equals 14 mg oral prednisone once/day
  GR potency, given as dose equivalence: 8 puffs 4 times a day;

## C[C@]12C=CC(=O)C=C1CC[C@H]1[C@@H]3C[C@@H](O)[C@](O)(C(=O)CO)[C@@]3(C)C[C@H](O)[C@@]12F [Triamcinolone]
Glucocorticoid receptor
  GR potency: 5
[1]
  MR potency: 0

## C[C@]12CCC(=O)C=C1CC[C@@H]1[C@@H]2C(=O)C[C@@]2(C)[C@H]1CC[C@]2(O)C(=O)CO [Cortisone]
Glucocorticoid receptor
  GR potency: 0.8
[1]
  MR potency: 0.8

## C[C@]12CCC(=O)C=C1CC[C@H]1[C@@H]3CC[C@](O)(C(=O)CO)[C@@]3(C)C[C@H](O)[C@@]12F [fludrocortisone, 9-alpha fluorohydrocortisone]
[2]; intravitreal 2 mg, 1 mg, 400 μg/0.1 ml, two weeks after injection
  ERG change in the other groups: no significant decrease in ERG
[2]; intravitreal 4 mg/0.1 mL
  intravitreal (vitreous) haemorrhage: one eye of this group had a vitreous hemorrhage
[2]; intravitreal 4 mg/0.1 ml, two weeks after injection
  ERG change: One eye in the 4 mg/0.1 ml fludrocortisone group exhibited significant decreases in ERG
[2]; rabbit, in vivo
  signs of retinal toxicity on slit-lamp examination, indirect ophthalmoscopy, or light microscopy: no signs of retinal toxicity

## C[C@]12C=CC(=O)C=C1CC[C@@H]1[C@@H]2[C@@H](O)C[C@@]2(C)[C@H]1CC[C@]2(O)C(=O)CO [Prednisolone]
Glucocorticoid receptor
  GR potency: 4
[1]
  MR potency: 0.8

## CC(=O)OCC(=O)[C@H]1CC[C@H]2[C@@H]3CCC4=CC(=O)CC[C@]4(C)[C@H]3CC[C@]12C [Deoxycorticosterone acetate]
Glucocorticoid receptor
  GR potency: 0
[1]
  MR potency: 20

## C[C@]12C=CC(=O)C=C1CC[C@@H]1[C@@H]2C(=O)C[C@@]2(C)[C@H]1CC[C@]2(O)C(=O)CO [Prednisone]
[1]
  MR potency: 0.8

## C[C@]12CCC(=O)C=C1CC[C@@H]1[C@@H]2[C@@H](O)C[C@@]2(C)[C@H]1CC[C@]2(O)C(=O)CO [Hydrocortisone]
Glucocorticoid receptor
  GR potency: 1
[1]
  MR potency: 1
